Values after ≈ are worked out from the molar mass of the structure shown.
Experiments:
HIV-2 (ROD) = assay: Inhibition of HIV-2 syncytium formation in CEM cells; type: cell-based; settings: for EC50 (ug/ml) HIV-2 / EC50: CEM cells, syncytium formation, day four post infection; for HIV-2 % Protection: protection of CEM cells against virus-induced cytopathicity at the concentration in the previous column; for EC50: Human immunodeficiency virus 2, CCRF-CEM, read-out: EC50 (ug/ml) HIV-2
Text: (§1) The cell type used to determine activity of the compounds of the invention herein, i.e., the test compounds, against HIV was human T-lymphoblast (CEM) cells obtained from the American Tissue Cell Culture Collection (Rockville, Md.). HIV-1 (IIIB) was originally obtained from the culture of persistently HIV-1 infected H9 cells and was provided by R. C. Gallo and M. Popovic (National Cancer Institute, National Institutes of Health, Bethesda, Md.). HIV-2 (ROD) was originally obtained from L. M. Montagnier (Pasteur Institute, Paris, France).
(§2) To determine the antiviral activity of the test compounds, CEM cells were suspended at a cell density of approximately 300,000 cells per ml of culture medium and infected with approximately 100 CCID50 (100 CCID50 being the 50% cell culture infective dose) of HIV-1 (IIIB) or HIV-2 (ROD)). Then 100 μl of the infected cell suspensions was added to 200 μl micro titer plate wells containing 100 μl of appropriate serial (5-fold) dilutions of the test compounds. The inhibitory effect of the test compounds on HIV-1 or HIV-2 syncytium formation in CEM cells was examined microscopically on day four post infection.
(§3) In these cases, the percent protection of the cells against virus-induced cytopathicity by the test compounds at the indicated compound concentration in the previous column is given.

HIV-1 (IIIB) = assay: microbe, parasite or virus in culture; type: cell-based; settings: for EC50 (ug/ml) HIV-1 / EC50: CEM cells, syncytium formation, day four post infection; for HIV-1 % Protection: protection of CEM cells against virus-induced cytopathicity at the concentration in the previous column; for EC50: Human immunodeficiency virus 1, IIIB, CCRF-CEM, read-out: EC50 (ug/ml) HIV-1
Text: as §1, §2, §3

Davis strain CMV = assay: Reduction of CMV-induced cytopathicity in HEL cells; type: cell-based, human cytomegalovirus (HCMV); settings: HEL cells; for Antiviral EC50 (ug/ml) Davis strain CMV / EC50: virus-induced cytopathicity after seven days; for Antiviral % Inhibition Davis strain CMV: estimate of percent protection at the concentration in the previous column; for EC50: Human betaherpesvirus 5, 168 h, read-out: Antiviral EC50 (ug/ml) Davis strain CMV
Description: Confluent HEL cells grown in […] microtiter plates were inoculated with CMV at an input of 100 PFU (plaque forming units) per well. After a one to two hour incubation period, residual virus was removed and the infected cells were further incubated with MEM (Minimal Essential Medium) (supplemented with 2% inactivated Fetal Calf Serum (FCS), […], and 0.3% sodium bicarbonate) containing varying concentrations of the test compounds. Antiviral activity was expressed as EC50 (50% effective concentration), or test compound concentration required to reduce virus-induced cytopathicity after seven days by 50% compared to the untreated control.
In some cases, the compounds had considerable cytotoxicity against HEL cells, which made determination of the EC50 difficult. In these cases, an estimate of the percent protection at the compound concentration indicated in the previous columns is given.

| SMILES | EC50 (ug/ml) HIV-2 (HIV-2 (ROD)) | HIV-2 % Protection (HIV-2 (ROD)) [%] | EC50 (ug/ml) HIV-1 (HIV-1 (IIIB)) | HIV-1 % Protection (HIV-1 (IIIB)) [%] | Antiviral EC50 (ug/ml) Davis strain CMV (Davis strain CMV) [µg/mL] | Antiviral % Inhibition Davis strain CMV (Davis strain CMV) [%] | EC50 (HIV-2 (ROD)) [µg/mL] | EC50 (HIV-1 (IIIB)) [µg/mL] | EC50 (Davis strain CMV) [µg/mL] |
| --- | --- | --- | --- | --- | --- | --- | --- | --- | --- |
| Cc1c(Cl)c(Cl)c(CS(=O)(=O)c2cccc[n+]2[O-])c(Cl)c1Cl [Compound 49] | ≧.8 ug/ml | 37.5 | ≧.8 ug/ml | 37.5 | 5.0 | – | – | – | – |
| CC(C)c1ccc(C(C)C)c(C[S+]([O-])c2cccc[n+]2[O-])c1 (centres unmarked) [Compound 95] | ≧4 ug/ml | 37.5 | >4 µg/mL | – | 4.1 | – | – | – | – |
| [O-][n+]1ccccc1[S+]([O-])Cc1ccc(F)cc1 (centres unmarked) [Compound 92] | 4.0 µg/mL (≈ 15.9 µM) | – | ≧20 ug/ml | 37.5 | >50 | 10.0 | – | – | – |
| N#CC(=Cc1ccccc1)Sc1cccc[n+]1[O-] [Compound 158] | >4 µg/mL | 0.0 | >4 µg/mL | 0.0 | 3.6 | – | – | – | – |
| COc1ccc(C[S+]([O-])c2cccc[n+]2[O-])cc1OC (centres unmarked) [Compound 98] | >0.8 µg/mL | 0.0 | >.8 µg/mL | 0.0 | 10.0 | – | – | – | – |
| Cc1ccc(C)c(C[S+]([O-])c2c(C)ccc[n+]2[O-])c1 (centres unmarked) [Compound 70] | ≧20 ug/ml | 37.5 | 12.00 µg/mL (≈ 43.6 µM) | – | 11.0 | – | – | – | – |
| Cc1ccc(C)c(C(C)S(=O)(=O)c2cccc(Cl)[n+]2[O-])c1 (centres unmarked) [Compound 76] | 2.4 µg/mL (≈ 7.37 µM) | – | 0.90 µg/mL (≈ 2.76 µM) | – | 9.1 | – | – | – | – |
| Cc1ccc(C[S+]([O-])c2cccc[n+]2[O-])cc1C (centres unmarked) [Compound 89] | 2.8 µg/mL (≈ 10.7 µM) | – | 2.50 µg/mL (≈ 9.57 µM) | – | 20.0 | – | – | – | – |
| Cc1cccc(CSc2cccc[n+]2C)c1.[Cl-] [Compound 142] | >4 µg/mL | 0.0 | >4 µg/mL | 0.0 | 3.4 | – | – | – | – |
| O=S(=O)(Cc1c(Cl)cccc1Cl)c1cccc[n+]1[O-] [Compound 17, 2-(2,6-Dichlorophenylmethylsulfonyl)pyridine N-oxide] | – | – | – | – | – | – | 8 (≈ 25.1 µM) | 9 (≈ 28.3 µM) | 5 (≈ 15.7 µM) |
| Cc1ccc([N+](=O)[O-])c(CS(=O)(=O)c2cccc[n+]2[O-])c1 [Compound 62] | 5.0 µg/mL (≈ 16.2 µM) | – | 1.90 µg/mL (≈ 6.16 µM) | – | >5 | 20.0 | – | – | – |
| O=S(=O)(c1ccc(Cl)c[n+]1[O-])C(Cl)c1ccccc1 (centres unmarked) [Compound 114, 2-(Phenylchloromethylsulfonyl)-5-chloropyridine N-oxide] | – | 0.0 | – | 0.0 | – | 20.0 | > 0.8 | > 0.8 | > 20 |
| COc1cc(CS(=O)(=O)c2cccc[n+]2[O-])cc(OC)c1OC [Compound 50] | ≧20 ug/ml | 37.5 | ≧20 ug/ml | 37.5 | >50 | 20.0 | – | – | – |
| COc1ccc(C[S+]([O-])c2cccc[n+]2[O-])cc1 (centres unmarked) [Compound 86] | >0.8 µg/mL | 0.0 | >.8 µg/mL | 0.0 | 3.8 | – | – | – | – |
| COc1ccc(C)cc1CS(=O)(=O)c1cccc[n+]1[O-] [Compound 30] | 14.0 µg/mL (≈ 47.7 µM) | – | 1.60 µg/mL (≈ 5.45 µM) | – | 37.0 | – | – | – | – |
| O=S(=O)(Cc1ccc(CS(=O)(=O)c2cccc[n+]2[O-])cc1)c1cccc[n+]1[O-] [Compound 23] | ≧20 ug/ml | 37.5 | ≧20 ug/ml | 37.5 | >20 | 20.0 | – | – | – |
| COc1cc(C=C(C#N)Sc2cccc[n+]2[O-])cc(OC)c1OC [Compound 160] | >20 µg/mL | 0.0 | >20 µg/mL | 0.0 | 7.0 | – | – | – | – |
| [O-][n+]1c(Cl)cccc1SCc1ccccc1 [Compound 149] | 16.0 µg/mL (≈ 63.6 µM) | – | 9.00 µg/mL (≈ 35.8 µM) | – | 20.0 | – | – | – | – |
| CCCCCCCC(c1cc(C)ccc1C)S(=O)(=O)c1cccc[n+]1[O-] (centres unmarked) [Compound 7, 2-[1-(2,5-Dimethylphenyl)octylsulfonyl]pyridine N-oxide] | – | 0.0 | – | 0.0 | – | – | > 0.8 | > 0.8 | 0.7 (≈ 1.86 µM) |
| CC(C)c1ccc(CS(=O)(=O)c2cccc[n+]2[O-])cc1 [Compound 58] | 2.6 µg/mL (≈ 8.92 µM) | – | 3.40 µg/mL (≈ 11.7 µM) | – | 5.0 | – | – | – | – |
| O=S(=O)(Cc1ccc2ccccc2c1)c1cccc[n+]1[O-] [Compound 53] | 4.1 µg/mL (≈ 13.7 µM) | – | 2.33 µg/mL (≈ 7.78 µM) | – | >5 | 20.0 | – | – | – |
| Cc1ccc(C)c(C(Cl)S(=O)(=O)c2c(Cl)ccc[n+]2[O-])c1 (centres unmarked) [Compound 125] | >4.0 µg/mL | 0.0 | >4 µg/mL | 0.0 | 31.5 | – | – | – | – |
| COc1ccc(CS(=O)(=O)c2cc(C(C)(C)C)cc[n+]2[O-])cc1 [Compound 135] | >20.00 µg/mL | 0.0 | >20 µg/mL | 0.0 | 12.5 | – | – | – | – |
| Cc1ccc(CS(=O)(=O)c2c(C)ccc[n+]2[O-])c(C)c1 [Compound 83] | ≧20 ug/ml | 37.5 | 6.00 µg/mL (≈ 20.6 µM) | – | 12.0 | – | – | – | – |
| Cc1cc[n+]([O-])c(S(=O)(=O)Cc2ccc(Cl)cc2)c1 [Compound 129] | 11.0 µg/mL (≈ 36.9 µM) | – | >14 µg/mL | – | >5 | 20.0 | – | – | – |
| Cc1cccc(CS(=O)(=O)c2cccc[n+]2[O-])c1 [Compound 27] | 9.0 µg/mL (≈ 34.2 µM) | – | 2.40 µg/mL (≈ 9.11 µM) | – | 16.0 | – | – | – | – |
